Measured values from patent publication US7893072B2, “Trp-p8 active compounds and therapeutic treatment methods” (Genentech, Inc., priority 2003, dated 2011).
Like-named read-outs stand apart in the source and are kept apart here.

Key:
293/Trp-p8.clone 18 = test: IC50 on 293/Trp-p8.clone 18; format: cell-based, human; details: read-out: IC50 293/Trp-p8.c18
Procedure: (§1) Human Cell Killing in vitro by Compounds that Activate Trp-p8. Referring to the Figures, in FIG. 1 the effectiveness of selected cool-genic compounds in human cell killing was evaluated. The order and potency of cool-genic compounds were compared in two related human cell lines, one was 293 cells expressing Trp-p8 and a second was matched 293 cells lacking (not expressing) Trp-p8 used as a control. There were about 50,000 cells per well at plating. The cool-genic compounds were added at plating. The cells were treated by exposing the cells to the individual compounds at varying concentrations over about 0.1 to about 1,000 microM for 72 hours. […] FIGS. 1A and 1C show the response of cells expressing Trp-p8 and treated with the indicated numbered or named coolgenic compounds. FIGS. 1B and 1D show the response of cells without (not expressing) Trp-p8 and also treated with the indicated coolgenic compounds. […] Compound IIa4-1 had the best kill (IC50<1 microM) for cells expressing Trp-p8.

293/Trp-p8.clone 10 = test: IC50 on 293/Trp-p8.clone 10; format: cell-based, human; details: read-out: IC50 293/Trp-p8.c10
Procedure: as §1

PC3/Trp-p8.clone 21 = test: IC50 on PC3/Trp-p8.clone 21; format: cell-based; details: Homo sapiens, PC3/Trp-p8.clone 21, in duplicate
Trp-p8 = biological target: T1, Trp-p8 (Homo sapiens, UniProt Q7Z2W7); test: Calcium ion uptake / flux (FLIPR) in cells expressing Trp-p8; format: cell-based; details: for Peak (FLIPR): maximum calcium ion flux at 10 microM
T1 construct: expressed in transfected cells; host or cells: 293 and PC3 cells expressing Trp-p8 (non-expressing controls: 293, PC3, PC3/neo)
T1 sequence (Q7Z2W7 whole entry): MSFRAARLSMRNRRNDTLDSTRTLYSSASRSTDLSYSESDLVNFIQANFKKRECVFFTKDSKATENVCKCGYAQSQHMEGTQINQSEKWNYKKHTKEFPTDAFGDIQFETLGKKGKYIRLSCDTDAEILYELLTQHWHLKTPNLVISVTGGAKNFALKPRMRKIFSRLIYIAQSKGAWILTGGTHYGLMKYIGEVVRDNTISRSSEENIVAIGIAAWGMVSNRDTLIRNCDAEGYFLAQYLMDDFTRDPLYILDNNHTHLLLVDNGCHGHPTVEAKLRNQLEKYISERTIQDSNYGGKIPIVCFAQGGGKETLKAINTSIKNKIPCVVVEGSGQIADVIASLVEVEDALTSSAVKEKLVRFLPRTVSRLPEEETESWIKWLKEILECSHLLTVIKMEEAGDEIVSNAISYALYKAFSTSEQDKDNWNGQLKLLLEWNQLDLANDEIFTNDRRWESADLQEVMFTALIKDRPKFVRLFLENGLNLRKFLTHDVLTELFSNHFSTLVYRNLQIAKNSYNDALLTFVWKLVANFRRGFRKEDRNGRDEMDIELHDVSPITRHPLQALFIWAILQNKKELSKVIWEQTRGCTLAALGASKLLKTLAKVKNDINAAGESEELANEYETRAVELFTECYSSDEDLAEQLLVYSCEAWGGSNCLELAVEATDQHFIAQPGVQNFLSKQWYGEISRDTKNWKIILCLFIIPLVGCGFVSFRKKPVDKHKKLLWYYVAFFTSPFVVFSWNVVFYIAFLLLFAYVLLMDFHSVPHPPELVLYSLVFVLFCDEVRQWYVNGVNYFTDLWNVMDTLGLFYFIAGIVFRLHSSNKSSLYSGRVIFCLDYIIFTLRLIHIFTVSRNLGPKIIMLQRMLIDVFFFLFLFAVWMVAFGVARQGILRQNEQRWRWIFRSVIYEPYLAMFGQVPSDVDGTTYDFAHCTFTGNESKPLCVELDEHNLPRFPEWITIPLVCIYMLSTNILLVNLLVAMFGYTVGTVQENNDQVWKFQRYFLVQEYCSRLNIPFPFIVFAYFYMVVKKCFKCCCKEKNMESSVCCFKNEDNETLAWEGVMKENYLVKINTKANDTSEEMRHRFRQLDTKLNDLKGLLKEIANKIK
Text: General methods and materials disclosed in R. Skyryma, et al., J. Physiology, 2000, 527.1, 71-83, for assessing and measuring calcium ion flux or cell uptake, and induction of apoptosis were adapted for use in the present disclosure and as illustrated herein. Other test methods and procedures such as described below, including cell line culturing, transfection, and in vivo and in vitro tumor growth inhibition, are readily apparent to one of ordinary skill in the art upon comprehending the disclosure.
Calcium ion uptake experiments were conducted as follows. Calcium uptake was measured for cells expressing Trp-p8 tumor antigen and for cells not expressing Trp-p8 tumor antigen after each cell line was contacted with cool-genic compounds of the present disclosure. […] Cells not expressing tumor antigen had essentially no observable calcium uptake over all of the cool-genic compound concentrations. […] Cell lines included non-expressing lines: 293, PC3, and PC3/neo; and tumor antigen expressing lines: […].

[1] = tested on: 293 cells expressing Trp-p8; test: Human cell killing in vitro, 293 cells expressing Trp-p8; format: cell-based
Procedure: as §1

PC3/Trp-p8 = PC3/Trp-p8 cell killing; format: cell-based, human

Row | SMILES | IC50 (293/Trp-p8.clone 18; Homo sapiens) | IC50 (293/Trp-p8.clone 10; Homo sapiens) | Peak (FLIPR) (Trp-p8) | other results
1 | CCc1ccc(NC(=O)[C@@H]2C[C@H](C)CC[C@H]2C(C)C)cc1 [IIa4-8] | 680 nM | 730 nM |  | 
2 | CC(C)[C@@H]1CC[C@@H](C)C[C@H]1C(=O)Nc1ccc(O)cc1 [IIa4-3] | 1050 nM | 1230 nM |  | IC50 (PC3/Trp-p8.clone 21): 4270 nM
3 | CC1CCC(C(C)C)C(C(=O)OCCO)C1 (centres unmarked) [Compound V-2] |  |  | 17,000 | 
4 | CC(C)[C@@H]1CC[C@@H](C)C[C@H]1C(=O)Nc1ccc(C(C)(C)C)cc1 [IIa4-11, 2-Isopropyl-5-methyl-cyclohexanecarboxylic acid(4-tert-butyl-phenyl)-amide] | 1410 nM | 1230 nM |  | 
5 | CC1CCC(C(C)C)C(C(=O)Nc2ccc3c(c2)CCC3)C1 (centres unmarked) [IIa6-3, 2-Isopropyl-5-methyl-cyclohexanecarboxylic acid indan-5-ylamide] | 1710 nM | 1350 nM |  | 
6 | CC1CCC(C(C)C)C(C(=O)OCCOCCO)C1 (centres unmarked) [Compound V-4] |  |  | 17,500 | 
7 | COc1cccc(NC(=O)[C@@H]2C[C@H](C)CC[C@H]2C(C)C)c1 [IIa10-1] | 3690 nM | 3800 nM |  | 
8 | Cc1ccc(NC(=O)[C@@H]2C[C@H](C)CC[C@H]2C(C)C)cc1 [IIa4-7] | 1140 nM | 1210 nM |  | 
9 | COc1ccc(NC(=O)C2CC(C)CCC2C(C)C)cc1Cl (centres unmarked) [IIa6-2, 2-Isopropyl-5-methyl-cyclohexanecarboxylic acid(3-chloro-4-methoxy-phenyl)-amide] |  |  |  | IC50 (293/Trp-p8.clone 18): 2570 nM; IC50 (293/Trp-p8.clone 10): 3100 nM
10 | CCCCCCP(=O)(C(C)CC)C(C)CC (centres unmarked) [IV-3] |  |  | 22,000 | 
11 | CC1CCC(C(C)C)C(C(=O)Nc2ccc(N3CCOCC3)cc2)C1 (centres unmarked) [IIa4-9, 2-Isopropyl-5-methyl-cyclohexanecarboxylic acid (4-morpholin-4-yl-phenyl)-amide] | 1450 nM | 1280 nM |  | 
12 | COC(=O)CNC(=O)C1CC(C)CCC1C(C)C (centres unmarked) [XIII-2] |  |  | 25,000 | 
13 | Cc1cc(NC(=O)[C@@H]2C[C@H](C)CC[C@H]2C(C)C)ccc1C(C)C [IIa6-4, 2-Isopropyl-5-methyl-cyclohexanecarboxylic acid(4-isopropyl-3-methyl-phenyl)-amide] | 4370 nM | 5050 nM |  | 
14 | CC(C)[C@@H]1CC[C@@H](C)C[C@H]1C(=O)Nc1ccccc1 [IIa4-2] | 3380 nM | 3210 nM |  | 
15 | CCC(C)c1ccc(NC(=O)[C@@H]2C[C@H](C)CC[C@H]2C(C)C)cc1 (some centres unmarked) [IIa4-10, 2-Isopropyl-5-methyl-cyclohexanecarboxylic acid(4-sec-butyl-phenyl)-amide] | 1080 nM | 3590 nM |  | 
16 | CCNC(=O)C1CC(C)CCC1C(C)C (centres unmarked) [IIb-1] |  |  | 25,000 | 
17 | O=C1NC(c2cccc([N+](=O)[O-])c2)=CCN1c1ccccc1O [Icilin, 3-(2-Hydroxy-phenyl)-6-(3-nitro-phenyl)-3,4-dihydro-1H-pyrimidin-2-one, reference compound] |  | 79200 nM | 20,000 | 
18 | CC1CCC(C(C)C)C(C(=O)NC(C)(C)CO)C1 (centres unmarked) [IIb-3] |  |  | 25,100 | 293/Trp-p8 Cell Killing [1]: Yes; PC3/Trp-p8 Cell Killing (PC3/Trp-p8): Yes

Row | SMILES | IC50 (293/Trp-p8.clone 18; Homo sapiens) | IC50 (293/Trp-p8.clone 10; Homo sapiens) | Peak (FLIPR) (Trp-p8) | other results
19 | CC(C)[C@@H]1CC[C@@H](C)C[C@H]1C(=O)Nc1ccc(F)cc1 [IIa4-6] | 3780 nM | 3580 nM |  | 
20 | CC(C)[C@@H]1CC[C@@H](C)C[C@H]1C(=O)Nc1ccc(Cl)cc1 [IIa4-5] | 17600 nM | 1990 nM |  | 
21 | CCCCCCCP(=O)(C(C)CC)C(C)CC (centres unmarked) [IV-1] |  |  | 31,000 | 293/Trp-p8 Cell Killing [1]: Yes
22 | COc1ccc(NC(=O)C2CC(C)CCC2C(C)C)cc1 (centres unmarked) [IIa4-1, 2-Isopropyl-5-methyl-cyclohexanecarboxylic acid(4-methoxy-phenyl)-amide] | 580 nM | 420 nM | 31,000 | calcium uptake (Trp-p8; cells expressing Trp-p8, about 0.0001 to about 10 microM): particularly high calcium uptake; 293/Trp-p8 Cell Killing [1]: Yes; IC50 ([1]; Homo sapiens, HEK293, 72 hours, about 50,000 cells per well, read-out: IC50 (kill) for cells expressing Trp-p8): < 1000 nM; PC3/Trp-p8 Cell Killing (PC3/Trp-p8): Yes; IC50 (293/Trp-p8.clone 18): 450 nM; IC50 (PC3/Trp-p8.clone 21): 1640 nM
23 | CCC(C)NC(=O)C1CC(C)CCC1C(C)C (centres unmarked) [IIb-5] |  |  | 23,300 | 
24 | CC(C)[C@@H]1CC[C@@H](C)C[C@H]1C(=O)Nc1cccc(F)c1 [IIa10-2] | 2910 nM | 6310 nM |  | 
25 | CCOC(=O)CNC(=O)C1CC(C)CCC1C(C)C (centres unmarked) [XIII-1] |  |  | 29,000 | 293/Trp-p8 Cell Killing [1]: Yes; PC3/Trp-p8 Cell Killing (PC3/Trp-p8): Yes
26 | CCCCCP(=O)(C(C)CC)C(C)CC (centres unmarked) [IV-2] |  |  | 29,000 | 
27 | COc1ccc(NC(=O)[C@@H]2C[C@H](C)CC[C@H]2C(C)C)c(C)c1 [IIa12-1] | 930 nM | 1140 nM |  | 
28 | CC1CCC(C(C)C)C(C(=O)NC(C)C)C1 (centres unmarked) [IIb-2] |  |  | 25,100 | 293/Trp-p8 Cell Killing [1]: Yes; PC3/Trp-p8 Cell Killing (PC3/Trp-p8): Yes
29 | CCCc1ccc(NC(=O)[C@@H]2C[C@H](C)CC[C@H]2C(C)C)cc1 [IIa4-12, 2-Isopropyl-5-methyl-cyclohexanecarboxylic acid(4-propyl-phenyl)-amide] | 4930 nM | 5650 nM |  | IC50 (PC3/Trp-p8.clone 21): 12900 nM
30 | CC1CCC(C(C)C)C(C(=O)O)C1 (centres unmarked) [Compound V-1] |  |  | 9,600 | 
31 | CNC(=O)C(C)(C(C)C)C(C)C [III-1] |  |  | 5,000 | 
32 | CC(C)c1ccc(NC(=O)[C@@H]2C[C@H](C)CC[C@H]2C(C)C)cc1 [IIa4-4] | 980 nM | 760 nM |  | IC50 (PC3/Trp-p8.clone 21): 3210 nM
33 | COc1ccc(NC(=O)[C@@H]2C[C@H](C)CC[C@H]2C(C)C)cc1F [IIa6-1] | 600 nM | 790 nM |  | 
34 | COc1ccccc1NC(=O)[C@@H]1C[C@H](C)CC[C@H]1C(C)C [IIa8-1] | 17600 nM | 16700 nM |  | 
35 | CC1CCC(C(C)C)C(C(=O)NC(C)(C)C)C1 (centres unmarked) [IIb-4] |  |  | 25,100 | 293/Trp-p8 Cell Killing [1]: Yes
